Here are results for 19 compounds from ChEMBL document CHEMBL4622887, “Antibacterial Pentacyclic Polyketides from a Soil-Derived Streptomyces” (2020).

Common to all, as to assay type: functional
The test system of one experiment is Bacillus spizizenii. Nature of the experiment: Antibacterial activity against Bacillus subtilis ATCC 6633 incubated for 16 hrs by broth microdilution method. As to conditions: ATCC 6633, 16 h. In general terms: Broth dilution looks for growth in wells or tubes with falling amounts of substance.
Experiment [1] deals with Staphylococcus aureus. Nature of the experiment: Antibacterial activity against Staphylococcus aureus ATCC 6538 incubated for 16 hrs by broth microdilution method. The following applies: ATCC 6538, 16 h.
For the next experiment, the system named is Escherichia coli. The experiment in a line: Antibacterial activity against Escherichia coli ATCC 8099 incubated for 16 hrs by broth microdilution method. The following applies: ATCC 8099, 16 h.
The subject of experiment [2] is Staphylococcus aureus. Nature of the experiment: Antibacterial activity against methicillin-resistant Staphylococcus aureus shhs-A1 incubated for 16 hrs by broth microdilution method. As to conditions: shhs-A1, 16 h.

Broadly, the MIC is the lowest concentration that inhibits growth of the organism.

In brackets after ≈: the same amount, converted by molar mass.

Regarding `COc1cc(C)c(-c2cc(OC)c(Cl)c3cc4c(c(O)c23)C(=O)c2c(O)cc(O)cc2C4(C)C)c(OC)c1`, the MIC came out at 12.5 µg/mL (≈ 23.4 µM) with Bacillus spizizenii, 3.13 µg/mL (≈ 5.85 µM) with Staphylococcus aureus [1], 3.13 µg/mL (≈ 5.85 µM) in the experiment on Escherichia coli and 3.13 µg/mL (≈ 5.85 µM) against Staphylococcus aureus [2].
Turning to `COc1cc(OC)c(-c2cc(OC)c(Cl)c3c2C(=O)[C@@]2(O)C(=O)c4c(O)cc(O)cc4C(C)(C)[C@H]2C3)c(C)c1Cl`, the MIC came to 25 µg/mL (≈ 42.6 µM) with Bacillus spizizenii, 6.25 µg/mL (≈ 10.6 µM) with Staphylococcus aureus [1], 25 µg/mL (≈ 42.6 µM) against Escherichia coli and 25 µg/mL (≈ 42.6 µM) against Staphylococcus aureus [2].
As to `COc1cc(C)c(-c2cc(O)c(Cl)c3cc4c(c(O)c23)C(=O)c2c(O)cc(OC)cc2C4(C)C)c(OC)c1`, the MIC in the experiment with Bacillus spizizenii, with Staphylococcus aureus [1], against Escherichia coli and against Staphylococcus aureus [2] was 6.25 µg/mL (≈ 11.7 µM) in each case.
Take `COc1cc(C)c(-c2cc(OC)c(Cl)c3c2C(=O)[C@@]2(O)C(=O)c4c(O)cc(O)cc4C(C)(C)[C@H]2C3)c(O)c1`: the MIC against Bacillus spizizenii was 6.25 µg/mL (≈ 11.6 µM); against Staphylococcus aureus [1], 6.25 µg/mL (≈ 11.6 µM); in the experiment with Escherichia coli it was 3.13 µg/mL (≈ 5.81 µM); in the experiment with Staphylococcus aureus [2], 6.25 µg/mL (≈ 11.6 µM).
Regarding `COc1cc(C)c(-c2cc(OC)cc3cc4c(c(O)c23)C(=O)c2c(O)cc(O)cc2C4(C)C)c(OC)c1`, the MIC was 3.13 µg/mL (≈ 6.25 µM) with Bacillus spizizenii, 3.13 µg/mL (≈ 6.25 µM) in the experiment with Staphylococcus aureus [1], 1.56 µg/mL (≈ 3.12 µM) against Escherichia coli and 1.56 µg/mL (≈ 3.12 µM) with Staphylococcus aureus [2].
Consider `COc1cc(C)c(-c2cc(O)c(Cl)c3c2C(=O)[C@@]2(O)C(=O)c4c(O)cc(O)cc4C(C)(C)[C@H]2C3)c(O)c1`, for which the values for the MIC against Bacillus spizizenii, in the experiment with Staphylococcus aureus [1] and against Escherichia coli were 50 µg/mL (≈ 95.2 µM), 12.5 µg/mL (≈ 23.8 µM) and 25 µg/mL (≈ 47.6 µM), respectively.
Take `COc1cc(O)c(-c2cc(O)cc3cc4c(c(O)c23)C(=O)c2c(O)cc(O)cc2C4(C)C)c(C)c1Cl`: the MIC is 3.13 µg/mL (≈ 6.17 µM) against Bacillus spizizenii, 3.13 µg/mL (≈ 6.17 µM) against Staphylococcus aureus [1], 3.13 µg/mL (≈ 6.17 µM) in the experiment on Escherichia coli and 1.56 µg/mL (≈ 3.08 µM) against Staphylococcus aureus [2].
Consider `COc1cc(O)cc(C)c1-c1cc(O)c(Cl)c2cc3c(c(O)c12)C(=O)c1c(O)cc(O)cc1C3(C)C`, for which the MIC came to 6.25 µg/mL (≈ 12.3 µM) with Bacillus spizizenii, 1.56 µg/mL (≈ 3.08 µM) in the experiment on Staphylococcus aureus [1], 6.25 µg/mL (≈ 12.3 µM) in the experiment with Escherichia coli and 3.13 µg/mL (≈ 6.17 µM) in the experiment with Staphylococcus aureus [2].
Consider `COc1cc(OC)c(-c2cc(OC)c(Cl)c3c2C(=O)[C@@]2(O)C(=O)c4c(O)cc(O)c(Cl)c4C(C)(C)[C@H]2C3)c(C)c1Cl`, for which the MIC came to 1.56 µg/mL (≈ 2.51 µM) in the experiment with Bacillus spizizenii, 3.13 µg/mL (≈ 5.03 µM) against Staphylococcus aureus [1], 1.56 µg/mL (≈ 2.51 µM) in the experiment with Escherichia coli and 3.13 µg/mL (≈ 5.03 µM) against Staphylococcus aureus [2].
For the compound `COc1cc(O)c(-c2cc(OC)c(Cl)c3c2C(=O)[C@@]2(O)C(=O)c4c(O)cc(O)cc4C(C)(C)[C@H]2C3)c(C)c1Cl`, the MIC against Bacillus spizizenii came to 1.56 µg/mL (≈ 2.72 µM); against Staphylococcus aureus [1], 0.39 µg/mL (≈ 0.68 µM); with Escherichia coli it was 1.56 µg/mL (≈ 2.72 µM); with Staphylococcus aureus [2] it was 1.56 µg/mL (≈ 2.72 µM).
For `COc1cc(-c2c(O)cc(OC)c(Cl)c2C)c2c(O)c3c(cc2c1)C(C)(C)c1cc(O)cc(O)c1C3=O`, the MIC against Bacillus spizizenii came out at 6.25 µg/mL (≈ 12 µM); in the experiment with Staphylococcus aureus [1], 6.25 µg/mL (≈ 12 µM); against Escherichia coli, 3.13 µg/mL (≈ 6.01 µM); with Staphylococcus aureus [2] it was 3.13 µg/mL (≈ 6.01 µM).
`COc1cc(C)c(-c2cc(OC)c(Cl)c3c2C(=O)[C@@]2(O)C(=O)c4c(O)cc(O)cc4C(C)(C)[C@H]2C3)c(OC)c1`: the minimal inhibitory concentration (MIC) against Bacillus spizizenii came to 3.13 µg/mL (≈ 5.66 µM); against Staphylococcus aureus [1] it was 3.13 µg/mL (≈ 5.66 µM); against Escherichia coli, 3.13 µg/mL (≈ 5.66 µM); in the experiment on Staphylococcus aureus [2], 1.56 µg/mL (≈ 2.82 µM).
Consider `COc1cc(C)c(-c2cc(OC)cc3cc4c(c(O)c23)C(=O)c2c(O)cc(O)cc2C4(C)C)c(O)c1`, for which the MIC against Bacillus spizizenii worked out at 6.25 µg/mL (≈ 12.8 µM); in the experiment on Staphylococcus aureus [1], 3.13 µg/mL (≈ 6.43 µM); in the experiment with Escherichia coli, 3.13 µg/mL (≈ 6.43 µM); in the experiment with Staphylococcus aureus [2] it was 3.13 µg/mL (≈ 6.43 µM).
As to `COc1cc(OC)c(-c2cc(OC)c(Cl)c3c2C(=O)[C@@]2(O)C(=O)c4c(cc(O)c(Cl)c4O)C(C)(C)[C@H]2C3)c(C)c1Cl`, the MIC is 3.13 µg/mL (≈ 5.03 µM) against Bacillus spizizenii, 6.25 µg/mL (≈ 10 µM) against Staphylococcus aureus [1], 12.5 µg/mL (≈ 20.1 µM) with Escherichia coli and 3.13 µg/mL (≈ 5.03 µM) with Staphylococcus aureus [2].
As to `COc1cc(C)c(-c2cc(OC)c(Cl)c3c2C(=O)[C@@]2(O)C(=O)c4c(O)cc(O)c(Cl)c4C(C)(C)[C@H]2C3)c(OC)c1`, the MIC in the experiment on Bacillus spizizenii is 3.13 µg/mL (≈ 5.33 µM); with Staphylococcus aureus [1] it was 0.78 µg/mL (≈ 1.33 µM); in the experiment on Escherichia coli, 1.56 µg/mL (≈ 2.66 µM); against Staphylococcus aureus [2], 1.56 µg/mL (≈ 2.66 µM).
For `COc1cc(C)c(-c2cc(OC)c(Cl)c3c2C(=O)[C@@]2(O)C(=O)c4c(O)c(Cl)c(O)c(Cl)c4C(C)(C)[C@H]2C3)c(OC)c1`, the MIC in the experiment with Bacillus spizizenii amounted to 0.39 µg/mL (≈ 0.627 µM); against Staphylococcus aureus [1], 0.39 µg/mL (≈ 0.627 µM); in the experiment with Escherichia coli, 0.78 µg/mL (≈ 1.25 µM); in the experiment on Staphylococcus aureus [2], 0.2 µg/mL (≈ 0.322 µM).
Consider `NC[C@H]1O[C@H](O[C@H]2[C@H](O)[C@@H](O[C@H]3O[C@H](CO)[C@@H](O)[C@H](N)[C@H]3O)[C@H](N)C[C@@H]2N)[C@H](O)[C@@H](O)[C@@H]1O` [KANAMYCIN], for which the figures for the MIC in the experiment on Bacillus spizizenii, against Staphylococcus aureus [1] and with Escherichia coli were 0.78 µg/mL (≈ 1.61 µM), 1.56 µg/mL (≈ 3.22 µM) and 50 µg/mL (≈ 103 µM), respectively.
`COc1cc2c(c(-c3c(O)cc(OC)c(Cl)c3C)c1)C(=O)[C@@]1(O)C(=O)c3c(O)cc(O)cc3C(C)(C)[C@H]1C2`: the MIC was found to be 6.25 µg/mL (≈ 11.6 µM) against Bacillus spizizenii, 3.13 µg/mL (≈ 5.81 µM) against Staphylococcus aureus [1], 3.13 µg/mL (≈ 5.81 µM) against Escherichia coli and 3.13 µg/mL (≈ 5.81 µM) in the experiment with Staphylococcus aureus [2].
The compound `CN[C@H](CC(C)C)C(=O)N[C@H]1C(=O)N[C@@H](CC(N)=O)C(=O)N[C@H]2C(=O)N[C@H]3C(=O)N[C@H](C(=O)N[C@H](C(=O)O)c4cc(O)cc(O)c4-c4cc3ccc4O)[C@H](O)c3ccc(c(Cl)c3)Oc3cc2cc(c3O[C@@H]2O[C@H](CO)[C@@H](O)[C@H](O)[C@H]2O[C@H]2C[C@](C)(N)[C@H](O)[C@H](C)O2)Oc2ccc(cc2Cl)[C@H]1O` [VANCOMYCIN] returned an MIC against Staphylococcus aureus [2] of 1.56 µg/mL (≈ 1.08 µM).
